This is an account of results in paper PMC4009756, “In Vitro High Throughput Screening, What Next? Lessons from the Screening for Aurora Kinase Inhibitors” (Biology, 2014).

What all share (type): biochemical
Assay [1] has as its target T1, aurora kinase A (Homo sapiens, UniProt O14965).
T1 construct: gene AURKA; recombinant kinase domain
T1 sequence (O14965 133-383 limits assumed): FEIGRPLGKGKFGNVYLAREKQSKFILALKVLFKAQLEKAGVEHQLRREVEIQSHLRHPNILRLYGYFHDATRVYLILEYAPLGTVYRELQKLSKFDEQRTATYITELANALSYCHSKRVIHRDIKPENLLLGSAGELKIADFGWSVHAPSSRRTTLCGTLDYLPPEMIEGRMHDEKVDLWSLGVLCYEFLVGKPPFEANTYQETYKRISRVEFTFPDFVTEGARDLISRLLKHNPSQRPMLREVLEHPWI
Put plainly: in vitro histone H3 phosphorylation by recombinant kinase domain. The following applies: read-out: % inhibition at 1.5 μM.

The target of assay [2] is T2, NUAK1-ARK5 "SnF1-like Kinase" (Homo sapiens, UniProt O60285).
T2 construct: recombinant kinase (NM_014840)
T2 sequence (O60285 1-661): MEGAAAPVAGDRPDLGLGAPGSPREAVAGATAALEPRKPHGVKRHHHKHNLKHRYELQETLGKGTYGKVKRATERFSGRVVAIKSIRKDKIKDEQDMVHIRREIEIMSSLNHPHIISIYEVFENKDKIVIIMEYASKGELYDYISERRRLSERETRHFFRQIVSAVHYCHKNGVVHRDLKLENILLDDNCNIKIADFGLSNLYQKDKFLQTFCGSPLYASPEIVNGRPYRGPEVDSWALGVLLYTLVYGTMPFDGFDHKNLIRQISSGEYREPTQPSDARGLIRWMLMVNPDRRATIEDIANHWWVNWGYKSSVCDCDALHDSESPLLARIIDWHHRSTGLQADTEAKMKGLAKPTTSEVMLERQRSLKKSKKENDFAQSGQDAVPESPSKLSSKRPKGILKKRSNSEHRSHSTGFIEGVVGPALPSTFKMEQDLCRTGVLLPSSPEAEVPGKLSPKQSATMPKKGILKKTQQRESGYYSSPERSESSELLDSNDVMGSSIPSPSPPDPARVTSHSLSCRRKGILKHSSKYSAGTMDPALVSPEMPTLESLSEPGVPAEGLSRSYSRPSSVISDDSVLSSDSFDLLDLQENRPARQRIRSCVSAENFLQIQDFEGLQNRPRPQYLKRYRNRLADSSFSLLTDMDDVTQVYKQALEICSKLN
Put plainly: in vitro kinase profiling (MRC Dundee), […], duplicate.

Assay [3] concerns the target T3, Tak1 "Transforming growth factor beta activated kinase" (Homo sapiens, UniProt O43318).
T3 construct: gene MAP3K7; recombinant kinase (NM_003188)
T3 sequence (O43318 1-606): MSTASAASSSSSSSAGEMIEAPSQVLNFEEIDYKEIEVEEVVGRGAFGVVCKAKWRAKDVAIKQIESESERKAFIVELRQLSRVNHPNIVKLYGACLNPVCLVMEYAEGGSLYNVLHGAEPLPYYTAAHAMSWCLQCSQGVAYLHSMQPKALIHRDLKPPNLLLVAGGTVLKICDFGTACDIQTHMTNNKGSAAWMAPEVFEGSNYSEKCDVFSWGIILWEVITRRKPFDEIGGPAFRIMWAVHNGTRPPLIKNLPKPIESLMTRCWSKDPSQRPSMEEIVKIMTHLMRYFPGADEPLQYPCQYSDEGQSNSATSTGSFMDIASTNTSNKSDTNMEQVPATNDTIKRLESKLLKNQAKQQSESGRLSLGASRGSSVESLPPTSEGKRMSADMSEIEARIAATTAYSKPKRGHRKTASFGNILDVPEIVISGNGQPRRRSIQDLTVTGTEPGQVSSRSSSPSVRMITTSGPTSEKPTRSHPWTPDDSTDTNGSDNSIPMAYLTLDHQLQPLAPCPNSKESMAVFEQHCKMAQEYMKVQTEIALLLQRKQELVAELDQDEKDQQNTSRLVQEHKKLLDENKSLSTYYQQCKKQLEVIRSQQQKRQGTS
Described as above.

In assay [4] the target is T4, GCK "Germinal central kinase" (Homo sapiens, UniProt Q12851).
T4 construct: gene MAP4K2; recombinant kinase (BC047865)
T4 sequence (Q12851 1-820): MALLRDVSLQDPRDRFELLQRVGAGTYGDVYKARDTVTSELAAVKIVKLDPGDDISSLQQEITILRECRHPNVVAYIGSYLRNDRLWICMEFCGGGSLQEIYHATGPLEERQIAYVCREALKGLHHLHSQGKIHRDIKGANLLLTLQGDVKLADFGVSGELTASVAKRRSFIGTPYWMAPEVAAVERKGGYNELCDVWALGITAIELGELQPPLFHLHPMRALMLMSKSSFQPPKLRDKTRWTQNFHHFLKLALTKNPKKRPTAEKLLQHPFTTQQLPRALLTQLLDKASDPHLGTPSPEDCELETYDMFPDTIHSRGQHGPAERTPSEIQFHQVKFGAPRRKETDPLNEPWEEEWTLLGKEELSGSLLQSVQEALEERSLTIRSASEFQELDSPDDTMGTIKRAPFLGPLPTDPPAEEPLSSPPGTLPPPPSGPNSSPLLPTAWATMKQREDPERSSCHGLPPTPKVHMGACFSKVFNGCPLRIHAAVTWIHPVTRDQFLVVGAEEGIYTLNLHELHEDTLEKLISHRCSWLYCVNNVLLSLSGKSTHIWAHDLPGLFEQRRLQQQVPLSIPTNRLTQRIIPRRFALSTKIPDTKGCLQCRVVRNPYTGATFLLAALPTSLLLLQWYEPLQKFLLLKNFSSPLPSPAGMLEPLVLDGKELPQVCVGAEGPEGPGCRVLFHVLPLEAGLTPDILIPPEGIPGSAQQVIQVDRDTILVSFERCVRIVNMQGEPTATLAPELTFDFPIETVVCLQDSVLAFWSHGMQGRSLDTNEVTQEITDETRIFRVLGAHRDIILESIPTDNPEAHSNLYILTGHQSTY
Described as above.

In assay [5] the target is T5, TrkA "Tropomyosin Related kinase A" (Homo sapiens, UniProt P04629).
T5 construct: gene NTRK1; recombinant kinase (NM_001007792.1)
The description is as above.

SMILES strings stand for the structures.

T5 sequence (P04629 33-796): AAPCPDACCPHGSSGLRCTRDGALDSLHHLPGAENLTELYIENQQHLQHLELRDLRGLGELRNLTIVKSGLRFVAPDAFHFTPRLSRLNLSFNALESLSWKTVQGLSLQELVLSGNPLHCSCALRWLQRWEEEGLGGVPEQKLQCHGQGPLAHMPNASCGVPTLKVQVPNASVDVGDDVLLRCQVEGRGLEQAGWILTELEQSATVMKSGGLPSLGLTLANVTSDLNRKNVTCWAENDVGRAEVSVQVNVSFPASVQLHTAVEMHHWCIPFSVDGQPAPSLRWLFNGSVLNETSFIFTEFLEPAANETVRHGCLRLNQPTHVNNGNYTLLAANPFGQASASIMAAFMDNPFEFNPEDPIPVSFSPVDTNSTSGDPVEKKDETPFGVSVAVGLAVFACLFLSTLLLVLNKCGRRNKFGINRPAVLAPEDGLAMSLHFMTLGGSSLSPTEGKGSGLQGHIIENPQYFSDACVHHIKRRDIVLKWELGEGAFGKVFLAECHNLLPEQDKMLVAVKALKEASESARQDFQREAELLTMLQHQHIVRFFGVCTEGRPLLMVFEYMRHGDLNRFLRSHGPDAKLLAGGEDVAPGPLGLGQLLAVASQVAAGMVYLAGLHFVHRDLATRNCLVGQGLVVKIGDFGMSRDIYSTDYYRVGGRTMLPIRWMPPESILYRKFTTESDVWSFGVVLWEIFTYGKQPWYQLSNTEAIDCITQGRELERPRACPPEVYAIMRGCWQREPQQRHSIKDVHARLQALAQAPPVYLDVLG

As usually defined, the inhibition is the share of the control response that was lost under treatment. As to `O=c1cc(-c2ccc(O)c(O)c2)oc2cc(O)cc(O)c12` [luteonin], the inhibition at 1.5 µM in assay [1] is 50%.

As to `O=c1cc(-c2ccc(O)cc2)oc2cc(O)cc(O)c12` [apigenin], in assay [1], the inhibition at 1.5 µM was 33%.

Regarding `Cc1cncc2c1[nH]c1ccc3cc(OCCN(C)C)ccc3c12` [C2], the remaining activity at 1 µM in assay [2] amounted to 53 ± 2%; in assay [3] it was 55 ± 3%; in assay [4] it was 32 ± 1%; in assay [5] it was 36 ± 2%.
